One assay addresses T1, RORγ-LBD (Homo sapiens, UniProt P51449).
T1 construct: made in house; host or cells: SF9 cells (baculovirus); used as diluted lysate
T1 sequence (P51449 269-508 limits assumed): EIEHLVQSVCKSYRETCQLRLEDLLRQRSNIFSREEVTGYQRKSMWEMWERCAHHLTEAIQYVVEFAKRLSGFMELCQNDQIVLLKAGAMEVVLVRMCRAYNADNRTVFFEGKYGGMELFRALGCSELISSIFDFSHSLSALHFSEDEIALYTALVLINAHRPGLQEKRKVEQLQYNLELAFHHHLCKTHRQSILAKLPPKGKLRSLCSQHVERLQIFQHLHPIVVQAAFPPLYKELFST
As to the kind of experiment: RORγ-Ligand Binding Domain (LBD) TR-FRET Assay. The assay is classed as biochemical. The conditions noted are these: RORγ-LBD TR-FRET. In outline: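 His-tagged RORγ-LBD from SF9 baculovirus lysate, ~3 nM final, in 50 mM Tris pH 7.0, 50 mM KCl, 1 mM EDTA, 0.1 mM DTT, 0.01% BSA. Biotinylated SRC1 LXXLL peptide at 200 nM final with 2 μM ursolic acid; TR-FRET read-out, 1% DMSO final.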
(In general: Time-resolved FRET reads energy transfer from a long-lived donor to a nearby acceptor.)

Another assay deals with T2, Gal4-RORγ-LBD (Homo sapiens, UniProt P51449).
T2 construct: expressed in transfected cells
T2 sequence (P51449 269-508 limits assumed): T1 sequence (P51449 269-508 limits assumed)
As to the kind of experiment: Gal4-RORγ Luciferase Reporter Assay in HEK-293T Cells. The assay is classed as cell-based. The conditions noted are these: HEK-293 cells, luciferase reporter, with ursolic acid. In outline:
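HEK-293 cells were co-transfected with Gal4-RORγ-LBD and a Gal4-luciferase reporter, then exposed overnight at 37 °C to compounds with […] ursolic acid present (0.2% DMSO). Luminescence was read with One-Glo after 10 min at RT, untreated signal was set as 100, and Max Response was taken as the upper plateau of a 4-parameter logistic fit.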
For orientation: In a reporter assay the amount or activity of a reporter protein is the signal.

Where only a bound is given, the exact number is not on record here.

One may read the EC50 as the concentration needed to bring the measured effect to its halfway point. The low end stands for an effect from little substance, the high end for a need for much substance. `COC(=O)CC[C@H]1CN(S(=O)(=O)c2cc(Cl)cnc2OCCO)c2cc(/C=C/c3c(F)cccc3Cl)ccc2O1` [Example 89AK, methyl (S,E)-3-(4-((5-chloro-2-(2-hydroxyethoxy)pyridin-3-yl)sulfonyl)-6-(2-chloro-6-fluorostyryl)-3,4-dihydro-2H-benzo[b][1,4]oxazin-2-yl)propanoate]: the figures for the EC50 on RORγ-LBD and on Gal4-RORγ-LBD were under 500 nM and 500 to 5000 nM, respectively.

As to `O=C(O)CC[C@H]1CN(S(=O)(=O)c2cc(Cl)cnc2OCCO)c2cc(/C=C/c3c(F)cccc3Cl)ccc2O1` [Example 89AL, (S,E)-3-(4-((5-chloro-2-(2-hydroxyethoxy)pyridin-3-yl)sulfonyl)-6-(2-chloro-6-fluorostyryl)-3,4-dihydro-2H-benzo[b][1,4]oxazin-2-yl)propanoic acid], the results for the EC50 at RORγ-LBD and at Gal4-RORγ-LBD were under 500 nM and 500 to 5000 nM, respectively.

With `CCOc1nn(CC)cc1S(=O)(=O)N1C[C@H](CCC(=O)O)Oc2ccc(/C=C/c3ccccc3F)cc21` [Example 89AM, (S,E)-3-(4-((3-ethoxy-1-ethyl-1H-pyrazol-4-yl)sulfonyl)-6-(2-fluorostyryl)-3,4-dihydro-2H-benzo[b][1,4]oxazin-2-yl)propanoic acid], the EC50 is under 500 nM at RORγ-LBD and over 10000 nM on Gal4-RORγ-LBD.

For the compound `CCOc1nn(CC)cc1S(=O)(=O)N1C[C@H](CCC(=O)OC)Oc2ccc(/C=C/c3ccccc3F)cc21` [Example 89AN, (S,E)-methyl 3-(4-((3-ethoxy-1-ethyl-1H-pyrazol-4-yl)sulfonyl)-6-(2-fluorostyryl)-3,4-dihydro-2H-benzo[b][1,4]oxazin-2-yl)propanoate], the EC50 at RORγ-LBD was 500 to 5000 nM; at Gal4-RORγ-LBD it was over 10000 nM.

For the compound `O=C(O)CC[C@H]1CN(S(=O)(=O)c2cccc(OC(F)F)c2)c2cc(/C=C/c3ccccc3C(F)(F)F)ccc2O1` [Example 89AO, (S,E)-3-(4-((3-(difluoromethoxy)phenyl)sulfonyl)-6-(2-(trifluoromethyl)styryl)-3,4-dihydro-2H-benzo[b][1,4]oxazin-2-yl)propanoic acid], the figures for the EC50 on RORγ-LBD and at Gal4-RORγ-LBD were under 500 nM and 500 to 5000 nM, respectively.

Take `COC(=O)CC[C@H]1CN(S(=O)(=O)c2cccc(OC(F)F)c2)c2cc(/C=C/c3ccccc3C(F)(F)F)ccc2O1` [Example 89AP, (S,E)-methyl 3-(4-((3-(difluoromethoxy)phenyl)sulfonyl)-6-(2-(trifluoromethyl)styryl)-3,4-dihydro-2H-benzo[b][1,4]-oxazin-2-yl)propanoate]: the EC50 on RORγ-LBD is under 500 nM; on Gal4-RORγ-LBD it was 500 to 5000 nM.

Consider `N#Cc1ccccc1/C=C/c1ccc2c(c1)N(S(=O)(=O)c1cccc(OC(F)F)c1)C[C@H](CCC(=O)O)O2` [Example 89AQ, (S,E)-3-(6-(2-cyanostyryl)-4-((3-(difluoromethoxy)phenyl)sulfonyl)-3,4-dihydro-2H-benzo[b][1,4]oxazin-2-yl)propanoic acid], for which the 50% effective concentration (EC50) on RORγ-LBD is under 500 nM; on Gal4-RORγ-LBD it was 500 to 5000 nM.

Take `COC(=O)CC[C@H]1CN(S(=O)(=O)c2cccc(OC(F)F)c2)c2cc(/C=C/c3ccccc3C#N)ccc2O1` [Example 89AR, (S,E)-methyl 3-(6-(2-cyanostyryl)-4-((3-(difluoromethoxy)phenyl)sulfonyl)-3,4-dihydro-2H-benzo[b][1,4]-oxazin-2-yl)propanoate]: the EC50 at RORγ-LBD is under 500 nM; on Gal4-RORγ-LBD it was 500 to 5000 nM.

With `CCOc1nn(CC)cc1S(=O)(=O)N1C[C@H](CCC(=O)O)Oc2ccc(/C=C/c3ccccc3C)cc21` [Example 89AS, (S,E)-3-(4-((3-ethoxy-1-ethyl-1H-pyrazol-4-yl)sulfonyl)-6-(2-methylstyryl)-3,4-dihydro-2H-benzo[b][1,4]oxazin-2-yl)propanoic acid], the figures for the EC50 on RORγ-LBD and on Gal4-RORγ-LBD were under 500 nM and over 10000 nM, respectively.

Turning to `CCOc1nn(CC)cc1S(=O)(=O)N1C[C@H](CCC(=O)OC)Oc2ccc(/C=C/c3ccccc3C)cc21` [Example 89AT, (S,E)-methyl 3-(4-((3-ethoxy-1-ethyl-1H-pyrazol-4-yl)sulfonyl)-6-(2-methylstyryl)-3,4-dihydro-2H-benzo[b][1,4]oxazin-2-yl)propanoate], the EC50 was under 500 nM on RORγ-LBD and 500 to 5000 nM at Gal4-RORγ-LBD.

Source of the values: patent US9896441B2 (Lycera Corporation, priority 2014, dated 2018).
